Source: US4372973A, “16-Amino-postaglandin derivatives, their acid addition salts, and a process for the preparation thereof” (priority 1981, dated 1983)
“Also recorded” adds a separate entry of the source.

Tests used:
rat uterine horn = test: Smooth muscle contraction, uterus; format: cell-based; details: PGF2α = 1.00
Source text: (§1) The compounds prepared according to the process of the invention were submitted to several tests developed for detecting the effects of 9α, 11α, 15(S)-trihydroxy-5-cis, 13-trans-prostadienoic acid (PGF2α). From the organs containing smooth muscle guinea pig trachea, ileum and rat uterine horn were used in the trials. The organs were suspended in isotonic salt medium and the potency was registered on the basis of isotonic contractions (Pharmacological Experiments on Isolated Preparations, Ed. W. L. M. Perry and E. S. Livingstone, Edinburgh and London (1970)). The effect exerted on the aggregation of human blood platelets, induced by 5.10^-5 mole/lit. of adenosine-5'-phosphate, was measured in a CHRONO LOG Aggregometer according to A. V. R. Born (J. Physiol. 162, 67 (1962)).

guinea pig ileum = test: Smooth muscle contraction, ileum; format: cell-based; details: PGF2α = 1.00
Source text: as §1

[1] = system: white mice on the 17th or 18th day of pregnancy; test: Abortive effect in pregnant mice; format: in vivo; details: s.c.; for ED50: Mus musculus, sc, 48 h, body weight, white mice, 17th or 18th day of pregnancy, 5 animals per group
Protocol: (§2) The favorable biological properties of the new compounds of the invention are clearly manifested in their abortive effect. The test materials were administered subcutaneously to white mice on the 17th or 18th day of pregnancy, then the deliveries were followed up in the subsequent 48 hours, and the overall status of the excised uterus (scars, embrional residual debris) was evaluated (M. J. R. Harper et al.: Advances in Biosciences 9, 789 (1973)). In groups containing 5 animals the dose effect relationships of PGF2α, its methyl ester, as well as of the new 16-amino-prostaglandin derivatives were determined.

[2] = Laxative effect (diarrhea) at abortive doses; format: in vivo, white mice
Protocol: as §2

human blood platelets = test: Inhibition of blood platelet aggregation; format: cell-based; details: 100 μg/ml, induced by 5.10^-5 mole/lit. of adenosine-5'-phosphate
Source text: as §1

[3] = system: 15-hydroxy-prostaglandin-dehydrogenase; test: 15-Hydroxy-prostaglandin-dehydrogenase substrate test; format: in vitro ADME; parameters: key: substrate; O: no substrate of the enzyme; details: In this test the concentration of the compounds 1.10^-4 mole/lit.
Protocol: Beyond these tests it was determined according to P. Tolnay et al. (Acta Biochim. Biophys. Acad. Sci. Hung. 14, 67 (1979)) whether the compounds of the invention are substrates of the 15-hydroxy-prostaglandin-dehydrogenaseenzyme.

guinea pig trachea = test: Smooth muscle contraction, trachea; format: cell-based; parameters: key: +: contraction on trachea; O: inactive on trachea; details: 1 μg/ml
Source text: as §1

Compound	Smooth muscle contraction relative efficiency Uterus (rat uterine horn)	Smooth muscle contraction relative efficiency Ileum (guinea pig ileum)	ED50 [1] [mg/kg]	laxative effect ([2]; at abortive doses)	inhibition at 100 µg/mL (human blood platelets) [%]	15-Hydroxy-prostaglandin-dehydrogenase (substrate or no substrate) [3]	Smooth muscle contraction Trachea (guinea pig trachea)	laxative effect ([2]; mouse, in vivo)	abortive potency (in words) ([1]; mice, compared to PGF2α, listed as 9 α, 11 α, 15(ksi)-trihydroxy-16(S)-amino-5-cis, 13-trans-prostadienoic acid met)	diarrhea ([2]; even at the tenfold of the abortive dose)
CCCCC[C@H](O)/C=C/[C@@H]1[C@@H](C/C=C\CCCC(=O)OC)[C@@H](O)C[C@H]1O [PGF2α methyl ester, reference compound]	1.25	0.78	6	exhibit also a laxative effect	56	s	+			
CCCCC[C@H](O)/C=C/[C@@H]1[C@@H](C/C=C\CCCC(=O)O)[C@@H](O)C[C@H]1O [PGF2α, 9α, 11α, 15(S)-trihydroxy-5-cis, 13-trans-prostadienoic acid, reference compound]	1.00	1.00	20		82	s	+	exhibit also a laxative effect		
CCCC[C@H](N)C(O)/C=C/[C@@H]1[C@@H](C/C=C\CCCC(=O)O)[C@@H](O)C[C@H]1O (single isomer, unassigned)	0.83	0.11			75	O				
CCCC[C@@H](N)C(O)/C=C/[C@@H]1[C@@H](C/C=C\CCCC(=O)O)[C@@H](O)C[C@H]1O (single isomer, unassigned)	0.13	0.02				O	O			
CCCC[C@@H](N)C(O)/C=C/[C@@H]1[C@@H](C/C=C\CCCC(=O)OC)[C@@H](O)C[C@H]1O (single isomer, unassigned)	0.05	0.02				O	O			
CCCC[C@H](N)C(O)/C=C/[C@@H]1[C@@H](C/C=C\CCCC(=O)OC)[C@@H](O)C[C@H]1O (single isomer, unassigned)	0.99	0.17	0.1		52	O	O		exceedingly high abortive effect; also recorded: the most active agent	no diarrhea is observed
